Measurements reported in patent US20240196898A1, “INSANITARY INSECT PEST CONTROL METHOD USING CONDENSED HETEROCYCLIC COMPOUND” (SUMITOMO CHEMICAL COMPANY, LIMITED, priority 2021, published 2024).

Assays:
Type in all cases: in vivo
[1] = system: Formosan subterranean worker termites (Coptotermes formosanus); assay: Test Example 4: treated filter paper contact test, 1 hour exposure, Formosan subterranean worker termites; settings: Coptotermes formosanus workers, after 3 days, read-out: Moribund and mortal rates (%) after 3 days; for mortality at 300 mg/m2: 300 mg/m^2 treated per area; for mortality at 500 mg/m2: 500 mg/m^2 treated per area; for mortality at 1000 mg/m2: 1,000 mg/m^2 treated per area
Description: 0.6 mL of an acetone solution containing prescribed amount of the present compound A, the present compound B, comparative compound 1, comparative compound 2, comparative compound 3, or comparative compound 4 was added dropwise on a filter paper having a diameter of 82 mm, followed by air drying. The filter paper was attached to a plastic petri dish having a diameter of 90 mm without gaps by adding dropwise 1.4 mL of water, and then Formosan subterranean worker termites (Coptotermes formosanus) were released and the vial was sealed with a lid, followed by exposure for 1 hours. After exposure for 1 hour, Formosan subterranean worker termites were transferred to a new plastic cup with bottom lined with the filter paper, followed by feeding water. After 3 days, the number of dead and moribund individuals of Formosan subterranean worker termites was examined, and moribund and mortal rates (%) were determined by the equation 4 below. Dead individuals are completely immobile individuals, and moribund individuals are individuals who are flightless and non-ambulatory.
Moribund and mortal rates (%)={(number of dead individuals+number of moribund individuals)/number of tested individuals}×100 (Equation 4)
The amount to be treated per area was set at 1,000, 500 and 300 mg/m^2.

[2] = system: African malaria mosquitos (Anopheles gambiae); assay: Test Example 2: vial inner-wall contact test, 50 minutes exposure, female adult African malaria mosquitos; settings: Anopheles gambiae female adults, after 4 days, read-out: Moribund and mortal rates (%) after 4 days; for mortality at 5 mg/m2: 5 mg/m^2 treated per area; for mortality at 10 mg/m2: 10 mg/m^2 treated per area; for mortality at 300 mg/m2: 300 mg/m^2 treated per area
Description: In a 250 mL volume vial, 1.0 mL of an acetone solution (containing 0.09% of a surfactant added therein) which contains prescribed amount of the present compound A, the present compound B, comparative compound 1, comparative compound 2, comparative compound 3, or comparative compound 4 was added dropwise and the inner wall of the vial was coated homogeneously with the chemicals and then air-dried. Thereafter, female adult African malaria mosquitos (Anopheles gambiae) were released and the vial was sealed with a lid, followed by exposure for 50 minutes. 50 Minutes after exposure, African malaria mosquitos were transferred to a new plastic cup, followed by feeding sugar water. After 4 days, the number of dead and moribund individuals of African malaria mosquitos was examined, and moribund and mortal rates (%) were determined by the equation 2 below. Dead individuals are completely immobile individuals, and moribund individuals are individuals who are flightless and non-ambulatory.
Moribund and mortal rates (%)={(number of dead individuals+number of moribund individuals)/number of tested individuals}×100 (Equation 2)
The amount to be treated per area was set at 300, 10 and 5 mg/m^2.

[3] = system: German cockroaches (Blattella germanica); assay: Test Example 1: vial inner-wall residual contact test, German cockroaches; settings: German cockroach, read-out: Moribund and mortal rates (%); for mortality at 5 mg/m2: 5 mg/m^2 treated per area; for mortality at 50 mg/m2: 50 mg/m^2 treated per area; for mortality at 150 mg/m2: 150 mg/m^2 treated per area; for mortality at 300 mg/m2: 300 mg/m^2 treated per area; for mortality at 1000 mg/m2: 1,000 mg/m^2 treated per area
Description: In a 20 mL volume vial, 0.2 mL of an acetone solution (containing 0.09% of a surfactant added therein) which contains prescribed amount of the present compound A, the present compound B, comparative compound 1, comparative compound 2, comparative compound 3, or comparative compound 4 was added dropwise and the inner wall of the vial was coated homogeneously with the chemicals and then air-dried. Thereafter, five German cockroaches (Blattella germanica) were released and the vial was sealed with a lid. […] Dead individuals are completely immobile individuals, and moribund individuals are individuals who cannot get up when turned on their backs, and are non-ambulatory.
Moribund and mortal rates (%)={(number of dead individuals+number of moribund individuals)/number of tested individuals}×100 (Equation 1)
The amount to be treated per area was set at 1000, 300, 150, 50 and 5 mg/m^2.

[4] = system: little red worker ants (Monomorium pharaonis); assay: Test Example 3: vial inner-wall contact test, 1 hour exposure, little red worker ants; settings: Monomorium pharaonis workers, after 1 day, read-out: Moribund and mortal rates (%) after 1 day; for mortality at 5 mg/m2: 5 mg/m^2 treated per area; for mortality at 100 mg/m2: 100 mg/m^2 treated per area; for mortality at 300 mg/m2: 300 mg/m^2 treated per area
Description: In a 20 mL volume vial, 0.2 mL of an acetone solution (containing 0.09% of a surfactant added therein) which contains prescribed amount of the present compound A, the present compound B, comparative compound 1, comparative compound 2, comparative compound 3, or comparative compound 4 was added dropwise and the inner wall of the vial was coated homogeneously with the chemicals and then air-dried. Thereafter, little red worker ants (Monomorium pharaonis) were released and the vial was sealed with a lid. After 1 hour, little red worker ants in the vial were transferred to a new plastic cup, followed by feeding […] sucrose water. After 1 day, the number of dead and moribund individuals was examined, and moribund and mortal rates (%) were determined by the equation 3 below. Dead individuals are completely immobile individuals, and moribund individuals are individuals who cannot get up when turned on their backs, and are non-ambulatory.
Moribund and mortal rates (%)={(number of dead individuals+number of moribund individuals)/number of tested individuals}×100 (Equation 3)
The amount to be treated per area was set at 300, 100 and 5 mg/m^2.

SMILES | mortality at 300 mg/m2 [1] [%] | mortality at 500 mg/m2 [1] [%] | mortality at 1000 mg/m2 [1] [%] | mortality at 5 mg/m2 [2] [%] | mortality at 10 mg/m2 [2] [%] | mortality at 300 mg/m2 [2] [%] | mortality at 5 mg/m2 [3] [%] | mortality at 50 mg/m2 [3] [%] | mortality at 150 mg/m2 [3] [%] | mortality at 300 mg/m2 [3] [%] | mortality at 1000 mg/m2 [3] [%] | mortality at 5 mg/m2 [4] [%] | mortality at 100 mg/m2 [4] [%] | mortality at 300 mg/m2 [4] [%]
CCS(=O)(=O)c1cc(C(F)(F)F)cnc1-c1nc2cc([S+]([O-])C(F)(F)F)ccc2o1 (stereo not drawn) [Comparative compound 1] | 10 | 30 | 100 | 3 | 43 | 53 | 10 | 30 | 50 | 50 | 100 | 30 | 40 | 100
CCS(=O)(=O)c1cc(C(F)(F)F)cnc1-c1nc2cc(S(=O)(=O)C(F)(F)F)ccc2o1 [Comparative compound 2] | 10 | 20 | 100 | 8 | 13 | 15 | 10 | 10 | 20 | 50 | 100 | 20 | 50 | 100
CCS(=O)(=O)c1cc(C)cnc1-c1nc2cc([S+]([O-])C(F)(F)F)ccc2o1 (stereo not drawn) [Comparative compound 3] | 10 | 10 | 100 | 6 | 7 | 35 | 10 | 30 | 30 | 40 | 100 | 10 | 30 | 100
CCS(=O)(=O)c1cc(C)cnc1-c1nc2cc(S(=O)(=O)C(F)(F)F)ccc2o1 [Comparative compound 4] | 10 | 10 | 100 | 8 | 15 | 26 | 10 | 10 | 20 | 30 | 100 | 10 | 20 | 100
CCS(=O)(=O)c1cc(C2CC2)cnc1-c1nc2cc([S+]([O-])C(F)(F)F)ccc2o1 (stereo not drawn) [Present compound A] | 100 | 100 | 100 | 100 | 100 | 100 | 100 | 100 | 100 | 100 | 100 | 100 | 100 | 100
CCS(=O)(=O)c1cc(C2CC2)cnc1-c1nc2cc(S(=O)(=O)C(F)(F)F)ccc2o1 [Present compound B] | 100 | 100 | 100 | 100 | 100 | 100 | 100 | 100 | 100 | 100 | 100 | 100 | 100 | 100
